Source: patent US20240174690A1, “ANNULATED 2-AMINO-3-CYANO THIOPHENES AND DERIVATIVES FOR THE TREATMENT OF CANCER” (BOEHRINGER INGELHEIM INTERNATIONAL GMBH, priority 2021, published 2024)
Values after ≈ are worked out from the molar mass of the structure shown. Where two headings read alike, the source gives them in different places.

What was measured:
[1] = Solubility measurement (DMSO solution method), McIlvaine buffer pH 4.5 or 6.8; format: physicochemical; conditions: aqueous buffer, kinetic from dmso stock, DMSO stock diluted to 250 μM, 24 h shaking at ambient temperature
In short: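 DMSO stock diluted into McIlvaine buffer, pH 4.5 or 6.8, to 250 µM final, shaken 24 h at ambient temperature. Precipitate removed by filtration; filtrate quantified by LC-UV against a fully dissolved reference in acetonitrile/water 1:1.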

[2] = Caco-2 assay (permeability PappAB, PappBA, efflux ratio); format: in vitro ADME; conditions: human, Caco-2, 10 μM test compound, pH 7.4; for efflux ratio at 90 min, 10 μM: efflux ratio PappBA/PappAB, read-out: Caco ER; for Papp A→B at 90 min, 10 μM: apical to basolateral
In short: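 Confluent Caco-2 monolayers on filter supports, 0.25% BSA in both donor and receiver buffer; transport measured a-b and b-a. After 25-30 min preincubation at 37 °C, samples at 0, 30, 60, 90 min quantified by HPLC/MS/MS. Papp from receiver amount per time, filter area and initial donor concentration; efflux ratio = PappBA/PappAB.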

[3] = system: KRAS G12C-dependent Ba/F3 cells; assay: Ba/F3 proliferation assay, KRAS G12C; format: cell-based; conditions: Mus musculus, BaF3, 72 h, AlamarBlue
In short: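 Ba/F3 cells were retrovirally transduced with KRAS G12 mutant vectors, puromycin-selected (1 μg/mL) and grown without IL-3 to make them KRAS-dependent. Compounds were tested in technical duplicates, viability was read by AlamarBlue fluorescence, and values came from curve fitting.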

NCI-H2122 cells = assay: NCI-H2122 CTG proliferation assay (120 h) (NSCLC, G12C); format: cell-based; conditions: Homo sapiens
In short: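 NCI-H2122 cells (KRAS G12C NSCLC), 200 per well in RPMI with 10% FCS, were dosed with compound on day 1 and incubated 120 h at 37 °C. Viability was read by CellTiter-Glo luminescence as percent of DMSO control, and IC50 was fitted with a four-parameter model.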

[4] = McIlvaine buffer pH 4.5, read-out: solubility pH 4.5
[5] = McIlvaine buffer pH 6.8, read-out: solubility pH 6.8

C[C@H](Oc1cc(-n2ccc(C(=O)N[C@@H]3CCOC3)n2)nc(-c2onc3c2CCC[C@@]32CCCc3sc(N)c(C#N)c32)n1)[C@@H]1CCCN1C [I-56]
solubility at 24 h [1, 4]: 108 µg/mL (≈ 161 µM)
solubility at 24 h [1, 5]: 97 µg/mL (≈ 145 µM)
efflux ratio at 90 min, 10 μM [2]: 10.4
IC50 [3]: 3 nM

C[C@H](Oc1nc(-c2onc3c2CCC[C@@]32CCCc3sc(N)c(C#N)c32)cc(N2CCN(C)C3(CC3)C2)n1)[C@@H]1CCCN1C [I-40]
IC50 [3]: 913 nM

C[C@H](NC(=O)c1ccn(-c2cc(O[C@@H](C)[C@@H]3CCCN3C)nc(-c3onc4c3CCC[C@@]43CCCc4sc(N)c(C#N)c43)n2)n1)c1ccccn1 [I-59]
solubility at 24 h [1, 4]: > 150 µg/mL
solubility at 24 h [1, 5]: 15 µg/mL (≈ 21.3 µM)
IC50 [3]: 2 nM

C[C@H](Oc1cc(-n2ccnn2)nc(-c2onc3c2CCC[C@@]32CCCc3sc(N)c(C#N)c32)n1)[C@@H]1CCCN1C [I-32]
solubility at 24 h [1, 4]: 100 µg/mL (≈ 179 µM)
solubility at 24 h [1, 5]: 14 µg/mL (≈ 25.1 µM)
IC50 [3]: 3 nM
IC50 (NCI-H2122 cells): 1.51 µM

C[C@H]1CN(C)CCCN1c1cc(N2CCN(C)CC2)nc(-c2noc3c2CCC[C@@]32CCCc3sc(N)c(C#N)c32)n1 [II-30]
solubility at 24 h [1, 4]: > 136 µg/mL
solubility at 24 h [1, 5]: > 125 µg/mL
IC50 [3]: 1050 nM
IC50 (NCI-H2122 cells): 3.55 µM

C[C@@H]1CN(c2cc(O[C@@H](C)[C@@H]3C[C@@H](F)CN3C)nc(-c3noc4c3CCC[C@@]43CCCc4sc(N)c(C#N)c43)n2)CC2(CC2)N1 [II-17]
solubility at 24 h [1, 4]: > 147 µg/mL
solubility at 24 h [1, 5]: 20 µg/mL (≈ 31.6 µM)
IC50 [3]: 373 nM

C[C@H](Oc1nc(-c2onc3c2CCC[C@@]32CCCc3sc(N)c(C#N)c32)cc(N2CCNC3(CC3)C2)n1)[C@@H]1CCCN1C [I-2]
solubility at 24 h [1, 4]: > 142 µg/mL
solubility at 24 h [1, 5]: > 131 µg/mL
Papp A→B at 90 min, 10 μM [2]: 1.2 ×10⁻⁶ cm/s
efflux ratio at 90 min, 10 μM [2]: 17.5
IC50 [3]: 493 nM

C[C@H](O)Cn1ccc(-c2cc(O[C@@H](C)[C@@H]3CCCN3C)nc(-c3onc4c3CCC[C@@]43CCCc4sc(N)c(C#N)c43)n2)n1 [I-31]
solubility at 24 h [1, 4]: > 128 µg/mL
solubility at 24 h [1, 5]: 118 µg/mL (≈ 192 µM)
Papp A→B at 90 min, 10 μM [2]: 2.3 ×10⁻⁶ cm/s
efflux ratio at 90 min, 10 μM [2]: 13.9
IC50 [3]: 9 nM

C[C@H](Oc1cc(N2CCN(C)CC2)nc(-c2noc3c2CCC[C@@]32CCCc3sc(N)c(C#N)c32)n1)[C@@H]1CCCN1[C@@H]1CCOC1 [II-39]
IC50 [3]: 193 nM
IC50 (NCI-H2122 cells): 3.6 µM

C[C@H](Oc1cc(N2C[C@H](C)NC3(CC3)C2)nc(-c2noc3c2CCC[C@@]32CCCc3sc(N)c(C#N)c32)n1)[C@@H]1C[C@@H](F)CN1C [II-18]
solubility at 24 h [1, 4]: > 146 µg/mL
solubility at 24 h [1, 5]: 8 µg/mL (≈ 12.6 µM)
IC50 [3]: 429 nM

CO[C@H]1CCN(C)[C@@H]1[C@H](C)Oc1cc(-n2ccc(C(=O)N[C@H]3CCOC3)n2)nc(-c2onc3c2CCC[C@@]32CCCc3sc(N)c(C#N)c32)n1 [I-54]
solubility at 24 h [1, 4]: 16 µg/mL (≈ 22.9 µM)
solubility at 24 h [1, 5]: < 1 µg/mL
IC50 [3]: 1 nM

C[C@H](Oc1cc(N2CCN(C)C3(CC3)C2)nc(-c2onc3c2CCC[C@@]32CCCc3sc(N)c(C#N)c32)n1)[C@@H]1C[C@@H](F)CN1C [I-39]
solubility at 24 h [1, 4]: > 147 µg/mL
solubility at 24 h [1, 5]: < 1 µg/mL
efflux ratio at 90 min, 10 μM [2]: 0.6
IC50 [3]: 613 nM

[2H]C([2H])([2H])N1C[C@H](F)C[C@H]1[C@H](C)Oc1cc(N2CCNC3(CC3)C2)nc(-c2noc3c2CCC[C@@]32CCCc3sc(N)c(C#N)c32)n1 [II-208]
efflux ratio at 90 min, 10 μM [2]: 1.8
IC50 [3]: 112 nM

CO[C@@H]1C[C@@H]([C@H](C)Oc2cc(N3CCN(C)C4(CC4)C3)nc(-c3onc4c3CCC[C@@]43CCCc4sc(N)c(C#N)c43)n2)N(C)C1 [I-50]
solubility at 24 h [1, 4]: > 139 µg/mL
solubility at 24 h [1, 5]: 95 µg/mL (≈ 147 µM)
efflux ratio at 90 min, 10 μM [2]: 1.7
IC50 [3]: 448 nM

C[C@H](Oc1cc(-n2ccc(C(=O)N[C@H]3CCOC3)n2)nc(-c2onc3c2CCC[C@@]32CCCc3sc(N)c(C#N)c32)n1)[C@@H]1CCCN1C [I-57]
IC50 [3]: 1 nM

CO[C@H]1CCN(C)[C@@H]1[C@H](C)Oc1cc(-n2ccc(CC(=O)NC(C)C)n2)nc(-c2onc3c2CCC[C@@]32CCCc3sc(N)c(C#N)c32)n1 [I-48]
solubility at 24 h [1, 4]: > 161 µg/mL
solubility at 24 h [1, 5]: 7 µg/mL (≈ 10.2 µM)
IC50 [3]: 4 nM

COCCNC(=O)c1ccn(-c2cc(O[C@@H](C)[C@@H]3[C@@H](OC)CCN3C)nc(-c3onc4c3CCC[C@@]43CCCc4sc(N)c(C#N)c43)n2)n1 [I-55]
solubility at 24 h [1, 4]: > 162 µg/mL
solubility at 24 h [1, 5]: 5 µg/mL (≈ 7.27 µM)
IC50 [3]: 2 nM
